# Test results published in patent publication US12281304B2, “Compositions and methods for treating and preventing muscular disorders and dystrophies, steroid side effects, and inflammation” (Children's National Medical Center, priority 2018, dated 2025).
# System: miRNAs in diaphragm muscle of mdx mice
# Test: TaqMan low-density array (TLDA) miRNA profiling of diaphragm, discovery set (prophylactic mdx trial)
# Type: in vivo, mouse
# From the text: Archival muscle samples (diaphragm) from two separate preclinical studies were obtained, with each trial showing a significant benefit from both prednisolone and vamorolone drug treatments (23). Prednisolone was used because it is the active form of prednisone, the current DMD standard of care. The first, “discovery set” of diaphragm muscles was from a prophylactic trial design where 2-week old (postnatal day 15) mdx or wild type control mice received oral dosing for 6 weeks with vehicle (cherry syrup), prednisolone (5 mg/kg), or vamorolone (15 mg/kg) as previously reported (23). The second, “validation set” of diaphragm muscles was from an extended trial in older mice where mdx or wild type mice were subjected to treadmill running to unmask mild phenotypes. Mice in this validation set were treated with either vehicle, prednisolone (5 mg/kg) or vamorolone (45 mg/kg) for four months beginning at two months of age (23). At the endpoint of each trial, diaphragm muscles were harvested and frozen in liquid nitrogen-cooled isopentane.
# We extracted total RNA from 5 diaphragm muscles per treatment group in the discovery set of samples from 8-week old mice. RNA was extracted using a modified TRIzol protocol with isopropanol precipitation at −20° C. overnight. This RNA was reverse transcribed to cDNA using a High Capacity cDNA Reverse Transcription Kit with RNase Inhibitor (ThermoFisher; Carlsbad, Calif.), with miRNA-specific Megaplex RT Primers, Rodent Pools Set version 3.0 (ThermoFisher; Carlsbad, Calif.). Levels of each of the miRNAs were profiled in the discovery set using TAQMAN Array Rodent MiRNA A+B Cards Set v3.0 (ThermoFisher; Carlsbad, Calif.).
# In the discovery set experiments, levels of each miRNA were quantified in TaqMan low-density arrays using ThermoFisher Cloud software with the Relative Quantification Application (ThermoFisher; Carlsbad, Calif.) tool. Data was analyzed by ANOVA with post-hoc comparison of each group to the mdx vehicle-treated group. […] A P-value of P≤0.05 was set as the significance threshold, without adjustment for multiple comparisons. To reduce false-positive discovery in this setting, an evidence-based approach was used to identify efficacy associated miRNAs where 1) results from the multiple groups were cross-referenced, and 2) all candidate miRNAs identified in this discovery set were then assayed in a separate validation set of mice. For the validation set experiments, levels of each individual miRNA were assayed in samples from a second, independent preclinical trial in adult mdx mice. Data from individual TaqMan Assays was quantified using QuantStudio Real-Time PCR version 1.3 software (Applied Biosystems; Foster City, Calif.). The levels of all miRNAs were normalized to the geometric mean of multiple control genes (60, 70). Comparison of groups was made by ANOVA with Holm-Sidak post-hoc test comparing each group to mdx vehicle.
# To visualize behavior of miRNAs within individual mice for each group, heat map images were generated. Heat maps were generated using Rq values of TLDA array data exported from the Relative Quantification Application of the ThermoFisher Cloud software (ThermoFisher; Carlsbad, Calif.) tool. Heat maps of miRNA expression were produced using Hierarchical Clustering Explorer Version 3.5 (at www.cs.umd.edu/hcil/multi-cluster/) produced by the Human Computer Interaction Laboratory (University of Maryland; College Park, Md.).
# To examine miRNA expression TaqMan low density qPCR array cards were used to profile approximately 750 miRNAs within diaphragm muscle from a discovery set of mice. Samples for this experiment came from a trial that utilized a prophylactic approach (23). Briefly, mdx mice undergo a stage of peak severity characterized by widespread inflammation and necrosis from approximately 3-8 weeks of age, followed by a recovery stage where mice show milder phenotypes (25). […]
# [1] = discovery set diaphragm muscle, mdx mice, Pred 5 mg/kg, Vam 15 mg/kg
# [2] = mdx diaphragm, vs untreated mdx, Pred 5 mg/kg, Vam 15 mg/kg
compound,measurement,setting,value
C[C@@H]1C[C@H]2[C@@H]3CCC4=CC(=O)C=C[C@]4(C)C3=CC[C@]2(C)[C@@]1(O)C(=O)CO [vamorolone],miRNA 142-3p % expression in comparison to mdx vehicle,[1],65 ± 20 %
same,miRNA 142-5p % expression in comparison to mdx vehicle,[1],61 ± 23 %
same,miRNA 146a % expression in comparison to mdx vehicle,[1],52 ± 12 %
same,miRNA 301a % expression in comparison to mdx vehicle,[1],77 ± 12 %
same,miRNA 324-3p % expression in comparison to mdx vehicle,[1],75 ± 13 %
same,miRNA 455-3p % expression in comparison to mdx vehicle,[1],61 ± 14 %
same,miRNA 455-5p % expression in comparison to mdx vehicle,[1],64 ± 15 %
same,miRNA 497 % expression in comparison to mdx vehicle,[1],65 ± 11 %
same,miRNA 652 % expression in comparison to mdx vehicle,[1],64 ± 18 %
same,number of miRNAs significantly changed in dystrophic muscle,"mdx diaphragm, 8-week-old mice, oral dosing 6 weeks, prednisolone 5 mg/kg, vamorolone 15 mg/kg, versus untreated mdx, P≤0.05",41
same,number of miRNAs significantly increased by treatment,"mdx diaphragm, discovery set, prednisolone 5 mg/kg, vamorolone 15 mg/kg, P≤0.05",none of the miRNAs queried in the TLDA cards were significantly increased
same,expression of the nine efficacy-associated miRNAs elevated in dystrophy,"mdx diaphragm, discovery set, versus mdx vehicle",returned towards healthy wild type levels
same,Rq hsa-let-7i#-002172,[2],0.939
same,Rq hsa-miR-30e-3p-000422,[2],0.849
same,Rq hsa-miR-22#-002301,[2],0.78
same,Rq hsa-miR-140-3p-002234,[2],0.903
same,Rq hsa-miR-143-000466,[2],1.29
same,Rq hsa-miR-154#-000478,[2],0.689
same,Rq hsa-miR-190b-002263,[2],0.822
same,Rq hsa-miR-200c-000505,[2],0.453
same,Rq hsa-miR-206-000510,[2],0.983
same,Rq hsa-miR-213-000516,[2],0.839
same,Rq hsa-miR-214#-002293,[2],0.889
same,Rq hsa-miR-214-000517,[2],0.994
same,Rq hsa-miR-376a#-001287,[2],0.845
same,Rq hsa-miR-455-001280,[2],0.637
same,Rq hsa-miR-744#-002325,[2],0.816
same,Rq mmu-let-7e-002406,[2],0.665
same,Rq mmu-let-7a-000377,[2],0.667
same,Rq mmu-let-7b-000378,[2],0.754
same,Rq mmu-let-7c-1#-002479,[2],1.038
same,Rq mmu-let-7c-000379,[2],0.691
same,Rq mmu-let-7i-002221,[2],0.777
same,Rq mmu-let-7d#-001178,[2],0.61
same,Rq mmu-let-7d-002283,[2],0.789
same,Rq mmu-miR-1-002222,[2],0.897
same,Rq mmu-miR-15a-000389,[2],0.719
same,Rq mmu-miR-16-000391,[2],0.781
same,Rq mmu-miR-18a-002422,[2],1.288
same,Rq mmu-miR-19a-000395,[2],0.886
same,Rq mmu-miR-20a#-002491,[2],0.825
same,Rq mmu-miR-21#-002493,[2],0.647
same,Rq mmu-miR-21-000397,[2],0.677
same,Rq mmu-miR-23b-000400,[2],0.675
same,Rq mmu-miR-25-000403,[2],0.867
same,Rq mmu-miR-26a-000405,[2],0.766
same,Rq mmu-miR-27b-000409,[2],0.82
same,Rq mmu-miR-28-000411,[2],0.842
same,Rq mmu-miR-30e-002223,[2],0.847
same,Rq mmu-miR-30a-000417,[2],0.834
same,Rq mmu-miR-30b-000602,[2],0.855
same,Rq mmu-miR-30c-000419,[2],0.818
same,Rq mmu-miR-31#-002495,[2],0.821
same,Rq mmu-miR-31-000185,[2],1.032
same,Rq mmu-miR-34a-000426,[2],0.789
same,Rq mmu-miR-34b-3p-002618,[2],0.798
same,Rq mmu-miR-34c#-002584,[2],0.748
same,Rq mmu-miR-34c-000428,[2],0.811
same,Rq mmu-miR-99b-000436,[2],0.913
same,Rq mmu-miR-100-000437,[2],0.721
same,Rq mmu-miR-103-000439,[2],0.628
same,Rq mmu-miR-122-002245,[2],0.072
same,Rq mmu-miR-125a-3p-002199,[2],0.828
same,Rq mmu-miR-125b#-002508,[2],0.803
same,Rq mmu-miR-125b-3p-002378,[2],0.866
same,Rq mmu-miR-125b-5p-000449,[2],0.682
same,Rq mmu-miR-126-3p-002228,[2],0.809
same,Rq mmu-miR-126-5p-000451,[2],0.812
same,Rq mmu-miR-127-000452,[2],1.107
same,Rq mmu-miR-128a-002216,[2],0.847
same,Rq mmu-miR-130a-000454,[2],0.717
same,Rq mmu-miR-130b#-002460,[2],1.164
same,Rq mmu-miR-130b-000456,[2],0.88
same,Rq mmu-miR-133a-002246,[2],0.996
same,Rq mmu-miR-134-001186,[2],1.353
same,Rq mmu-miR-136-002511,[2],0.942
same,Rq mmu-miR-138#-002554,[2],0.384
same,Rq mmu-miR-140-001187,[2],0.818
same,Rq mmu-miR-142-3p-000464,[2],0.626
same,Rq mmu-miR-142-5p-002248,[2],0.576
same,Rq mmu-miR-143-002249,[2],0.716
same,Rq mmu-miR-145-002278,[2],0.722
same,Rq mmu-miR-146a-000468,[2],0.513
same,Rq mmu-miR-146b#-002453,[2],0.275
same,Rq mmu-miR-146b-001097,[2],0.645
same,Rq mmu-miR-148a-000470,[2],0.496
same,Rq mmu-miR-148b-000471,[2],0.568
same,Rq mmu-miR-150#-002570,[2],0.293
same,Rq mmu-miR-150-000473,[2],0.692
same,Rq mmu-miR-151-3p-001190,[2],0.971
same,Rq mmu-miR-152-000475,[2],0.785
same,Rq mmu-miR-154-000477,[2],0.898
same,Rq mmu-miR-155-002571,[2],0.876
same,Rq mmu-miR-181a-000480,[2],0.773
same,Rq mmu-miR-181c-000482,[2],0.71
same,Rq mmu-miR-185-002271,[2],0.886
same,Rq mmu-miR-186-002285,[2],0.994
same,Rq mmu-miR-191-002299,[2],0.815
same,Rq mmu-miR-193#-002577,[2],0.682
same,Rq mmu-miR-195-000494,[2],0.669
same,Rq mmu-miR-199a-3p-002304,[2],0.722
same,Rq mmu-miR-199b-001131,[2],0.667
same,Rq mmu-miR-200c-002300,[2],0.577
same,Rq mmu-miR-203-000507,[2],0.521
same,Rq mmu-miR-204-000508,[2],0.627
same,Rq mmu-miR-210-000512,[2],0.746
same,Rq mmu-miR-214-002306,[2],0.842
